Reference: US20210308089A1, “METHODS OF TREATING AND/OR PREVENTING VIRAL INFECTIONS AND/OR DISEASES CAUSED BY VIRUSES IN A SUBJECT IN NEED THEREOF” (priority 2020, published 2021)

Tested on: patients of the REDUCE-IT and earlier EPA placebo-controlled trials
Assay: Example 3: adverse events by risk ratio, icosapent ethyl vs placebo (candidate categories; infectious disease terms of interest)
Conditions: for NNT / Risk Ratio (95% CI) / ARR: ISS
[1] = Frequent Bowel Movements, Any Severity
[2] = Frequent Bowel Movements, Mild Severity
[3] = Frequent Bowel Movements, Related
[4] = Huntington's Chorea, Any Severity
[5] = Huntington's Chorea, Mild Severity
[6] = ITT, AMR101 N = 4089, placebo 8 of 4090
[7] = ITT, AMR101 N = 4089, placebo 10 of 4090
[8] = ITT, AMR101 N = 4089, placebo 22 of 4090

CC/C=C\C/C=C\C/C=C\C/C=C\C/C=C\CCCC(=O)OCC [icosapent ethyl, eicosapentaenoic acid ethyl ester]
NNT (Flatulence, Mild Severity): 129 | Risk Ratio (95% CI) (Flatulence, Mild Severity): 0.424 (0.125 to 1.440) 3 | ARR (Flatulence, Related): −0.8% | NNT (Flatulence, Related): 121 | Risk Ratio (95% CI) (Flatulence, Related): 0.463 (0.152 to 1.408) 3 | ARR [1]: −0.6% | NNT [1]: 173 | Risk Ratio (95% CI) (Frequent Bowel Movements, Any Severity, case counts given): [0 drug vs 3 PBO] | ARR [2]: −0.4% | NNT [2]: 259 | Risk Ratio (95% CI) (Frequent Bowel Movements, Mild Severity, case counts given): [0 drug vs 2 PBO] | ARR [3]: −0.6% | NNT [3]: 173 | Risk Ratio (95% CI) (Frequent Bowel Movements, Related, case counts given): [0 drug vs 3 PBO] | ARR (Hot Flush): −0.3% | NNT (Hot Flush): 292 | Risk Ratio (95% CI) (Hot Flush): 0.556 (0.125 to 2.474) 3 | ARR [4]: −1.3% | NNT [4]: 77 | Risk Ratio (95% CI) [4]: 0.247 (0.067 to 0.908) 4 | ARR [5]: −0.9% | NNT [5]: 109 | Risk Ratio (95% CI) [5]: 0.318 (0.083 to 1.223)4 | ARR (Menorrhagia): −0.6% | NNT (Menorrhagia): 159 | Risk Ratio (95% CI) (Menorrhagia): 0.185 (0.021 to 1.653) 5 | ARR (Muscle spasms, Related): −0.0% | NNT (Muscle spasms, Related): 2007 | Risk Ratio (95% CI) (Muscle spasms, Related): 0.741 (0.046 to 11.826) 2 | ARR (Nasopharyngitis, Any Severity): −2.3% | NNT (Nasopharyngitis, Any Severity): 43 | Risk Ratio (95% CI) (Nasopharyngitis, Any Severity): 0.588 (0.344 to 1.004) 3 | ARR (Nasopharyngitis, Mild Severity): −2.3% | NNT (Nasopharyngitis, Mild Severity): 43 | Risk Ratio (95% CI) (Nasopharyngitis, Mild Severity): 0.494 (0.265 to 0.921) 3 | ARR (Weight loss, Related): −0.4% | NNT (Weight loss, Related): 230 | Risk Ratio (95% CI) (Weight loss, Related): 0.247 (0.026 to 2.369) 4 | Bronchiectasis TEAE: % of subjects (ITT, AMR101 N = 4089, placebo 0.1, Fisher's Exact p 0.5076): (0.1) % | Hepatosplenomegaly TEAE: % of subjects (ITT, AMR101 N = 4089, placebo 0.1, Fisher's Exact p 0.6249): (0.0) % | Allergic sinusitis TEAE: % of subjects (ITT, AMR101 N = 4089, placebo 0.1, Fisher's Exact p 0.6874): (0.0) % | Mucosal inflammation TEAE: % of subjects (ITT, AMR101 N = 4089, placebo 0.1, Fisher's Exact p 0.7264): (0.1) % | Systemic inflammatory response syndrome TEAE: % of subjects (ITT, AMR101 N = 4089, placebo 0.2, Fisher's Exact p 0.1092): (0.0) % | Splenomegaly TEAE: % of subjects (ITT, AMR101 N = 4089, placebo 0.2, Fisher's Exact p 0.1792): (0.1) % | Neutropenia TEAE: % of subjects (ITT, AMR101 N = 4089, placebo 0.2, Fisher's Exact p 0.2262): (0.1) % | Gingivitis TEAE: % of subjects (ITT, AMR101 N = 4089, placebo 0.2, Fisher's Exact p 0.3013): (0.1) % | Orthopnea TEAE: % of subjects (ITT, AMR101 N = 4089, placebo 0.2, Fisher's Exact p 0.3873): (0.1) % | Helicobacter infection TEAE: % of subjects (ITT, AMR101 N = 4089, placebo 0.2, Fisher's Exact p 0.4235): (0.1) % | Herpes simplex TEAE: % of subjects (ITT, AMR101 N = 4089, placebo 0.2, Fisher's Exact p 0.5807): (0.1) % | Vulvovaginal mycotic infection TEAE: % of subjects (ITT, AMR101 N = 4089, placebo 0.3, Fisher's Exact p 0.2097): (0.1) % | Bronchitis chronic TEAE: % of subjects (ITT, AMR101 N = 4089, placebo 0.3, Fisher's Exact p 0.5029): (0.2) % | Hepatobiliary disorders (SOC) TEAE: % of subjects (ITT, AMR101 N = 4089, placebo 0.5, Fisher's Exact p 0.0037): (0.1) % | Hepatomegaly TEAE: % of subjects (ITT, AMR101 N = 4089, placebo 0.5, Fisher's Exact p 0.0065): (0.1) % | Atelectasis TEAE: % of subjects (ITT, AMR101 N = 4089, placebo 0.5, Fisher's Exact p 0.0795): (0.3) % | Emphysema TEAE: % of subjects (ITT, AMR101 N = 4089, placebo 0.5, Fisher's Exact p 0.2144): (0.3) % | Rhinitis TEAE: % of subjects (ITT, AMR101 N = 4089, placebo 0.5, Fisher's Exact p 0.4166): (0.4) % | Tooth infection TEAE: % of subjects (ITT, AMR101 N = 4089, placebo 0.7, Fisher's Exact p 0.2514): (0.5) % | Influenza like illness TEAE: % of subjects (ITT, AMR101 N = 4089, placebo 0.7, Fisher's Exact p 0.6709): (0.6) % | Thrombocytopenia TEAE: % of subjects (ITT, AMR101 N = 4089, placebo 0.8, Fisher's Exact p 0.3393): (0.6) % | Wheezing TEAE: % of subjects (ITT, AMR101 N = 4089, placebo 0.9, Fisher's Exact p 0.1162): (0.6) % | General disorders and administration site conditions (SOC) TEAE: % of subjects (ITT, AMR101 N = 4089, placebo 1.0, Fisher's Exact p 0.1800): (0.7) % | Sepsis TEAE: % of subjects (ITT, AMR101 N = 4089, placebo 1.0, Fisher's Exact p 0.3535): (0.8) % | Blood and lymphatic system disorders (SOC) TEAE: % of subjects (ITT, AMR101 N = 4089, placebo 1.2, Fisher's Exact p 0.0279): (0.7) % | Hepatosplenomegaly TEAE: number of subjects (ITT, AMR101 N = 4089, placebo 3 of 4090): 1 | Allergic sinusitis TEAE: number of subjects (ITT, AMR101 N = 4089, placebo 4 of 4090): 2 | Mucosal inflammation TEAE: number of subjects (ITT, AMR101 N = 4089, placebo 5 of 4090): 3 | Cough TEAE: % of subjects (ITT, AMR101 N = 4089, placebo 5.9, Fisher's Exact p 1.0000): (5.9) % | Bronchiectasis TEAE: number of subjects (ITT, AMR101 N = 4089, placebo 6 of 4090): 3 | Influenza TEAE: % of subjects (ITT, AMR101 N = 4089, placebo 6.6, Fisher's Exact p 0.7541): (6.4) % | Pneumonia TEAE: % of subjects (ITT, AMR101 N = 4089, placebo 6.8, Fisher's Exact p 0.5627): (6.4) % | Respiratory, thoracic and mediastinal disorders (SOC) TEAE: % of subjects (ITT, AMR101 N = 4089, placebo 7.8, Fisher's Exact p 0.2050): (7.0) % | Herpes simplex TEAE: number of subjects [6]: 5 | Neutropenia TEAE: number of subjects [6]: 3 | Orthopnea TEAE: number of subjects [6]: 4 | Systemic inflammatory response syndrome TEAE: number of subjects [6]: 2 | Helicobacter infection TEAE: number of subjects (ITT, AMR101 N = 4089, placebo 9 of 4090): 5 | Gingivitis TEAE: number of subjects [7]: 5 | Splenomegaly TEAE: number of subjects [7]: 4 | Vulvovaginal mycotic infection TEAE: number of subjects (ITT, AMR101 N = 4089, placebo 11 of 4090): 5 | Bronchitis chronic TEAE: number of subjects (ITT, AMR101 N = 4089, placebo 12 of 4090): 8 | Infections and infestations (SOC) TEAE: % of subjects (ITT, AMR101 N = 4089, placebo 14.6, Fisher's Exact p 0.2676): (13.8) % | Hepatomegaly TEAE: number of subjects (ITT, AMR101 N = 4089, placebo 19 of 4090): 5 | Emphysema TEAE: number of subjects (ITT, AMR101 N = 4089, placebo 20 of 4090): 12 | Subjects with at least one Infectious Disease TEAE of Interest: % of subjects (ITT, AMR101 N = 4089, placebo 21.6, Fisher's Exact p 0.0562): (19.9) % | Atelectasis TEAE: number of subjects [8]: 11 | Hepatobiliary disorders (SOC) TEAE: number of subjects [8]: 6 | Rhinitis TEAE: number of subjects [8]: 16 | Influenza like illness TEAE: number of subjects (ITT, AMR101 N = 4089, placebo 27 of 4090): 23 | Tooth infection TEAE: number of subjects (ITT, AMR101 N = 4089, placebo 29 of 4090): 20 | Thrombocytopenia TEAE: number of subjects (ITT, AMR101 N = 4089, placebo 31 of 4090): 23 | Wheezing TEAE: number of subjects (ITT, AMR101 N = 4089, placebo 36 of 4090): 23 | General disorders and administration site conditions (SOC) TEAE: number of subjects (ITT, AMR101 N = 4089, placebo 40 of 4090): 28 | Sepsis TEAE: number of subjects (ITT, AMR101 N = 4089, placebo 42 of 4090): 33 | Blood and lymphatic system disorders (SOC) TEAE: number of subjects (ITT, AMR101 N = 4089, placebo 48 of 4090): 28 | Subjects with at least one Infectious Disease Events of Interest (TEAE terms and labs): % of subjects (ITT, AMR101 N = 4089, placebo 86.8, Fisher's Exact p <.0001): (83.0) % | Cough TEAE: number of subjects (ITT, AMR101 N = 4089, placebo 241 of 4090): 241 | Influenza TEAE: number of subjects (ITT, AMR101 N = 4089, placebo 271 of 4090): 263 | Pneumonia TEAE: number of subjects (ITT, AMR101 N = 4089, placebo 277 of 4090): 263 | Respiratory, thoracic and mediastinal disorders (SOC) TEAE: number of subjects (ITT, AMR101 N = 4089, placebo 318 of 4090): 287 | Infections and infestations (SOC) TEAE: number of subjects (ITT, AMR101 N = 4089, placebo 599 of 4090): 563 | Subjects with at least one Infectious Disease TEAE of Interest: number of subjects (ITT, AMR101 N = 4089, placebo 883 of 4090): 812 | Subjects with at least one Infectious Disease Events of Interest (TEAE terms and labs): number of subjects (ITT, AMR101 N = 4089, placebo 3549 of 4090): 3394 | AR: ADHD (AE table) (R-I): 0.0% | AR: Allergic sinusitis (AE table) (R-I): 0.1% | AR: Alzheimer's Disease (AE table) (R-I): 0.1% | AR: Asthma (AE table) (R-I): 1.3% | AR: Atelectasis (AE table) (R-I): 0.4%
